Assay results as given in US20240277670A1, “SAFE USE OF MMP-12 INHIBITOR” (Foresee Pharmaceuticals Co., Ltd., priority 2021, published 2024).
Where two headings read alike, the source gives them in different places.

Test: Food effect (FE) part, plasma pharmacokinetics
Assay type: in vivo, human
Settings: for AUC / AUC(0-inf) / Cmax / AUC(0-t) / half-life / Vd/F / Tmax: human, plasma, po, 200 mg; for AUC: read-out: AUC0- GM; for Vd/F: read-out: Vz/F; for Tmax: median
Method: In this part, eight subjects received 200 mg ASD-in-Capsule orally as a single dose in a randomized way, once under fasting conditions and once after the intake of a high fat breakfast, with a wash-out period of one week between successive dosing (FIG. 4).
Blood samples were collected post-dosing on Day 1 (at 0.5, 1, 2, 3, 4, 6, 8, 12, and 16 hours) and Day 8 (at 0.5, 1, 2, 3, 4, 6, 8, 10, 12, 16, 20, 24, 30, 36, and 48 hours) as well as immediately pre-morning dose on Days 2-7 and 2 hours post-morning dose on Days 4 and 6. Within 15 minutes of collection, blood samples were centrifuged at 2000 rpm for 10 minutes at 4° C., and, subsequently, the plasma was aliquoted, frozen, and stored at −70° C. pending PK analyses.
The samples were subjected to liquid chromatography followed by analyses by tandem mass spectrometry. The lower limit of quantification for the compound of formula (I) was 5 ng/mL.
The plasma PK parameters were derived by non-compartmental analyses using Phoenix® WinNonlin® version 6.3 or higher (Pharsight Corporation Inc., Mountain View, CA, USA). PK variables were summarized using arithmetic mean, standard deviation, median, minimum, maximum, the percent coefficient of variation, geometric mean, and a two-sided 95% confidence limit of the arithmetic mean and the geometric mean.
For the evaluations of food effect on the PK profile of the compound of formula (I), the analysis of variance (ANOVA) model included sequence, treatment, and period as fixed effects and subject nested within sequence as a random effect using the SASR mixed model procedure. Each ANOVA included calculation of Least Squares Means (LSM), the difference between LSM under fed condition (Test) over fasted condition (Reference), and the standard error associated with this difference.

[1] = 200 mg single oral dose, fed over fasted, geometric least-squares mean ratio
[2] = Treatment D: single oral dose 200 mg ASD-in-Capsule, fasted, mean
[3] = Treatment E: single oral dose 200 mg ASD-in-Capsule, fed (high-fat, high-calorie breakfast), mean

AUC0- GMR Treatment E/D [1]: 103.42 percentage
AUC0-inf GMR Treatment E/D [1]: 102.76 percentage
Cmax GMR Treatment E/D [1]: 74.53 percentage
CL/F [2]: 32.3 L/h
Kel [2]: 0.0796 h⁻¹
CL/F [3]: 32.3 L/h
Kel [3]: 0.0917 h⁻¹
AUC (Treatment D: 200 mg single oral dose, fasted, geometric least-squares mean): 6260 ng·h/mL
AUC(0-inf) (Treatment D: 200 mg single oral dose, fasted, geometric least-squares mean, read-out: AUC0-inf GM): 6400 ng·h/mL
Cmax (Treatment D: 200 mg single oral dose, fasted, geometric least-squares mean, read-out: Cmax GM): 1020 ng/mL
AUC(0-t) [2]: 6490 ng·h/mL
half-life [2]: 9.36 h
AUC(0-inf) (Treatment D: single oral dose 200 mg ASD-in-Capsule, fasted, mean, read-out: AUC0-inf): 6620 ng·h/mL
Cmax (Treatment D: single oral dose 200 mg ASD-in-Capsule, fasted, mean, read-out: Cmax): 1050 ng/mL
Vd/F [2]: 446 L
Tmax (Treatment D: single oral dose 200 mg ASD-in-Capsule, fasted): 1 h
AUC (Treatment E: 200 mg single oral dose, fed, geometric least-squares mean): 6480 ng·h/mL
AUC(0-inf) (Treatment E: 200 mg single oral dose, fed, geometric least-squares mean, read-out: AUC0-inf GM): 6580 ng·h/mL
Cmax (Treatment E: 200 mg single oral dose, fed, geometric least-squares mean, read-out: Cmax GM): 764 ng/mL
AUC(0-t) [3]: 6800 ng·h/mL
half-life [3]: 8.09 h
AUC(0-inf) (Treatment E: single oral dose 200 mg ASD-in-Capsule, fed (high-fat, high-calorie breakfast), mean, read-out: AUC0-inf): 6900 ng·h/mL
Cmax (Treatment E: single oral dose 200 mg ASD-in-Capsule, fed (high-fat, high-calorie breakfast), mean, read-out: Cmax): 787 ng/mL
Vd/F [3]: 383 L
Tmax (Treatment E: single oral dose 200 mg ASD-in-Capsule, fed (high-fat, high-calorie breakfast)): 2.5 h
Structure (SMILES): Cc1cccc(COc2ccc(Sc3ccoc3C3NC(=O)NC3=O)cc2)c1 (stereo not shown) [compound of formula (I)]
